In one test the test system is iniB promoter. It is filed as cell-based, BCG. The note with it: for Induction of the iniB promoter at 24 hours: BCG containing the iniB/lacZ construct; for Induction of the iniB promoter at 24 hours / iniA gene induction / effect on iniA transcription: FIG. 4; for iniA gene induction / effect on iniA transcription: amino acids; for iniB promoter induction: 213 base pair iniB promoter in lacz reporter construct.

The subject of test [1] is iniA. Nature of the test: Northern blot of iniA induction after antibiotic treatment. The conditions noted are these: total RNA from M. tuberculosis cultured with or without antibiotics; FIG. 1. It is filed as cell-based. As for the experimental part: Autoradiographs of a Northern blot containing RNA from M. tuberculosis cultures treated either with no antibiotics; isoniazid 0.01 μg/ml; isoniazid 0.1 μg/ml; isoniazid 1 μg/ml; ethambutol 5 μg/ml; streptomycin 5 μg/ml; and rifampin 5 μg/ml. The blots were hybridized first with an iniA DNA probe (top) to examine iniA induction; the blot was then stripped and re-hybridized with a 16S probe (bottom) to confirm equal RNA loading.
Mycobacterial cultures were grown to mid log phase in Middlebrook 7H9 media supplemented with OADC, 0.05% Tween 80, and cyclohexamide (18) (for some experiments antibiotics were added for the last 18 hours), pelleted, resuspended in chloroform/methanol 3:1, and vortexed for 60 seconds or until the formation of an interface. RNA was extracted with five volumes of Triazole (Life Technologies, Gaithersburg, Md.), the aqueous layer precipitated in isopropanol, redissolved in 4M GTC and extracted a second time with Triazole.
Five μg of each RNA sample were analyzed by northern blot with Northern Max kits (Ambion, Austin, Tex.) in a 1% denaturing agarose gel, probed with inserts of differentially expressed plasmids labeled by random priming with [α^32P] dCTP, and visualized by autoradiography.

Test [2] has as its system iniA. The class given is cell-based, M. tuberculosis strain Erdman. The conditions noted are these: RT PCR; isoniazid added for the last 18 hours; FIG. 2A.
For a further test, the system named is asd. The class given is cell-based, M. tuberculosis strain Erdman. The note with it: RT PCR; isoniazid added for the last 18 hours; FIG. 2A.

`C[C@H](O)[C@@H](N)C(=O)O` [D-threonine]: in the test on iniB promoter, the “Induction of the iniB promoter at 24 hours” value (“Induction … at 24 hours” for short) is “comparable to that of isoniazid and Unisyn”; the “iniA gene induction / effect on iniA transcription” value is recorded as “induced”.

With `C[C@@H](O)[C@H](N)C(=O)O` [L-threonine], in the test on iniB promoter, the “Induction … at 24 hours” value was “did not cause induction” and the “iniA gene induction / effect on iniA transcription” value is recorded as “minimal effect”.

Take `N[C@@H]1CON=C1O` [cycloserine]: in the test with iniB promoter (FIG. 3), the iniB promoter induction entry is given as “induced”.

As for `CC[C@@H](CO)NCCN[C@@H](CC)CO` [ethambutol], in the test with iniB promoter (FIG. 3), the iniB promoter induction entry was “induced”. In the test with iniA [1], the “iniA induction (Northern blot)” value is listed as “strongly induced”.

For `NCC(=O)O` [gylcine], in the test on iniB promoter, the “Induction … at 24 hours” value is listed as “Modest induction”.

`NNC(=O)c1ccncc1` [isoniazid]: the iniB promoter induction result in the test with iniB promoter (FIG. 3) is given as “induced”. Besides, in the test with iniA [1], the “iniA induction (Northern blot)” value is recorded as “strongly induced”. Also, the “iniA induction by densitometry” value in the test on iniA [2] was determined as 70 fold. The asd repression in the test on asd worked out at 17 fold.

With `CO[C@H]1/C=C/O[C@@]2(C)Oc3c(C)c(O)c4c(O)c(c(/C=N/N5CCN(C)CC5)c(O)c4c3C2=O)NC(=O)/C(C)=C\C=C\[C@H](C)[C@H](O)[C@@H](C)[C@@H](O)[C@@H](C)[C@H](OC(C)=O)[C@@H]1C` [rifampin], in the test with iniB promoter (co-administration with inducing antibiotic, FIG. 3), the “Reversal of iniB promoter induction by co-administration” value is given as “can be reversed”. In addition, the “iniA induction (Northern blot)” value with iniA [1] is “not”.

Turning to `[H]/N=C(/N)N[C@H]1[C@H](O)[C@@H](O)[C@H](O[C@@H]2O[C@@H](C)[C@](O)(C=O)[C@H]2O[C@@H]2O[C@@H](CO)[C@H](O)[C@@H](O)[C@@H]2NC)[C@@H](N/C(N)=N\[H])[C@@H]1O` [streptomycin], the “iniA induction (Northern blot)” value in the test on iniA [1] is “not”.
